Experimental data reported in PMC10796475, “Immobilization of Thermoplasma acidophilum Glucose Dehydrogenase and Isocitrate Dehydrogenase Through Enzyme-Inorganic Hybrid Nanocrystal Formation” (Current Microbiology, 2024).

Experiments:
[1] = molecular target: T1, TaIDH (T. acidophilum isocitrate dehydrogenase) (Thermoplasma acidophilum, UniProt Q9HLV8); experiment: NADPH formation at […] nm, initial rate (oxidative decarboxylation); format: biochemical; settings: free enzyme; NADP+ 0.2 mM, MgCl2 0.4 mM; HEPES-NaOH pH 6.5, 37 °C; partially purified
T1 construct: gene Ta0117; pET21b(+) in E. coli BL21(DE3)pLysS; partially purified by heat treatment (60 °C, 15 min)
T1 sequence (Q9HLV8 1-405): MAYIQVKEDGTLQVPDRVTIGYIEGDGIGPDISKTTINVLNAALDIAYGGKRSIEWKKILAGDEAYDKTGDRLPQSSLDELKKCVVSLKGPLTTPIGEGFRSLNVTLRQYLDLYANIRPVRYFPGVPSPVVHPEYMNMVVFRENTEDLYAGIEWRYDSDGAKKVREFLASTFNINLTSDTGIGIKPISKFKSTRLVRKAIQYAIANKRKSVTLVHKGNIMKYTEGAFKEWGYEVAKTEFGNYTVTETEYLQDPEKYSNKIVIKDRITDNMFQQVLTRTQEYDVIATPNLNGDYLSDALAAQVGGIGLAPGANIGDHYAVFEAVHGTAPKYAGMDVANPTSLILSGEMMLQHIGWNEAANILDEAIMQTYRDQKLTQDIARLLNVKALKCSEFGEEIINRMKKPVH

[2] = molecular target: T2, TaGDH (Thermoplasma acidophilum glucose dehydrogenase) (Thermoplasma acidophilum, UniProt P13203); experiment: NADPH formation at […] nm, initial rate; format: biochemical; settings: free enzyme; NADP+ 0.2 mM; HEPES-NaOH pH 6.5, 37 °C; partially purified
T2 construct: gene gdh; pET21b(+) in E. coli Rosetta(DE3)pLysS; partially purified by heat treatment (60 °C, 15 min)
T2 sequence (P13203 2-361): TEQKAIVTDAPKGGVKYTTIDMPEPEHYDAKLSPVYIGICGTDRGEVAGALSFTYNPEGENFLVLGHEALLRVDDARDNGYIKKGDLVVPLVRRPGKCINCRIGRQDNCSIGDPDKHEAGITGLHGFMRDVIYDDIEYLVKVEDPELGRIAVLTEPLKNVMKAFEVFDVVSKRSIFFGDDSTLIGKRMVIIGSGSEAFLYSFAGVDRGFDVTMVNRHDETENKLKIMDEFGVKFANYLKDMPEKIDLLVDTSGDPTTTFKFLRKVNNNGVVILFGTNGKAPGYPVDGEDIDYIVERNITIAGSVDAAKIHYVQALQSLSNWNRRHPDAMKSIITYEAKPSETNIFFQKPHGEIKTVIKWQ

Row | Compound | NADPH formation at 340 nm, initial rate (oxidative decarboxylation) [1] | NADPH formation at 340 nm, initial rate [2]
1 | O=C(O)CC(C(=O)O)C(O)C(=O)O (racemic) [DL-isocitric acid] | NADPH released by the decarboxylation and oxidation of DL-isocitric acid per minute | 
2 | OC[C@H]1OC(O)[C@H](O)[C@@H](O)[C@@H]1O (stereo partly drawn) [D-glucose] |  | micromoles of NADPH released by the oxidation of glucose per minute
